This is an account of results in PMC9964746, “Mechanism of Action and Structure–Activity Relationships of Tetracyclic Small Molecules Acting as Universal Positive Allosteric Modulators of the Cholecystokinin Receptor” (Membranes, 2023).

Experiment [1] deals with T1, vasopressin-2 receptor (AVP2R) (Homo sapiens, UniProt P30518).
T1 construct: expressed in transfected cells; host or cells: CHO-K1 (PAM format); HEK-293 (agonist format)
Nature of the experiment: AVP2R cAMP HTRF accumulation assay. The settings on record: for AVP2R PAM (cAMP) Score (activity score = normalized Emax × pEC50): PAM format. Format: cell-based. The method, boiled down:
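Readout is HTRF cAMP detection (30 min, room temperature) following 30 min compound exposure with vasopressin stimulation, using HEK-293 cells for agonist mode and CHO-K1 cells for PAM mode, both overexpressing AVP2R, in IBMX-containing HBSS/HEPES buffer. Curves: 16 points, 2-fold steps, duplicate, ≥2 experiments.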

A further experiment deals with parental CHO cells. Nature of the experiment: Intracellular calcium assay in parental CHO cells. Format: cell-based. The note with it: compound alone, up to 20 µM. How it is done:
(§1) Biological activity was quantified in the CHO cell lines described above using intracellular calcium assays that were performed, as previously described, using Fura-8-AM (AAT Bioquest, Pleasonton, CA, USA). Full agonist dose–response curves were performed along with determination of maximal responses to 0.1 mM ATP, targeting an endogenous receptor present on the parental cells. Concentration–response curves of peak intracellular calcium responses were analyzed and plotted as percentages of maximal responses using non-linear regression analysis in Prism 9.1 (GraphPad).

In experiment [2] the target is T2, CCK1R (Homo sapiens, UniProt P32238).
T2 sequence (P32238 1-428): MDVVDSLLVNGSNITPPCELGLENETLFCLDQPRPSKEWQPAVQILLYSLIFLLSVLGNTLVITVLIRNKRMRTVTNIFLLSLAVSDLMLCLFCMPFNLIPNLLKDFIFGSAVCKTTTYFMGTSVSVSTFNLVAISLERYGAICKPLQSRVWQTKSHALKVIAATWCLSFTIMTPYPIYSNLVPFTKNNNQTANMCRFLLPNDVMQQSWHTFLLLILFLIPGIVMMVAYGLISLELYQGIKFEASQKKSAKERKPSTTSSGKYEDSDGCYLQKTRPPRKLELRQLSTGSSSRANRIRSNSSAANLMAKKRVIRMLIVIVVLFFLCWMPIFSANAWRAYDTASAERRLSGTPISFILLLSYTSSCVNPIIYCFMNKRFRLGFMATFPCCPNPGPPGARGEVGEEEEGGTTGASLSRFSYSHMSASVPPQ
Nature of the experiment: Intracellular calcium assay (Fura-8-AM) in CHO-CCK1R cells. Format: cell-based. The arrangement: expressed in transfected cells. The settings on record: for Intrinsic agonist activity at CCK1R (intracellular calcium): CHO-CCK1R cells, compound alone, up to 20 µM; for Kb / Logαβ: operational model of allosterism, mean ± SEM; for Kb: CCK-8-stimulated calcium responses in CCK1R-expressing cells; for Logαβ: cooperativity with CCK-8 in CCK1R-expressing cells. The procedure: as §1

In experiment [3] the test system is purinergic receptor (P2YR). The note with it: off-target screen ref 6; cited from earlier work.
The target in a further experiment is T3, CCK2R (Homo sapiens, UniProt P32239).
T3 construct: expressed in transfected cells; host or cells: CHO-K1 (CHO-CCK2R line)
T3 sequence (P32239 1-447): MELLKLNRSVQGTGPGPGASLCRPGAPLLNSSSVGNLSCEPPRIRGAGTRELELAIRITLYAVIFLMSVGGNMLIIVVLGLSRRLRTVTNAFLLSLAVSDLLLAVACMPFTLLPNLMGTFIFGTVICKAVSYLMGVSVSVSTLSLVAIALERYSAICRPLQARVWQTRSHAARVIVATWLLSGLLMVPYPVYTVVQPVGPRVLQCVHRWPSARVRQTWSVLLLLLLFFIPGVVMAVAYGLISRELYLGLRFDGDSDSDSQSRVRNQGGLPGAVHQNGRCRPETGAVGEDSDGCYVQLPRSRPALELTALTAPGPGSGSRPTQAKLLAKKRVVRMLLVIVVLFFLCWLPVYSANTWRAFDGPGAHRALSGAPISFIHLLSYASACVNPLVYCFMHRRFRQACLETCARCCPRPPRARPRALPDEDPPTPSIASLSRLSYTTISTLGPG
Description: Intracellular calcium assay (Fura-8-AM) in CHO-CCK2R cells. The note with it: compound 10 µM. Format: cell-based. How it is done: as §1

Experiment [4] has as its target T2, CCK1R. Nature of the experiment: Receptor internalization assay with alexa488-CCK. The arrangement: expressed in transfected cells; host or cells: HEK-293. The settings on record: hits at 10 µM; cell surface receptor labelled with alexa488-CCK. Format: cell-based. The procedure: Receptor internalization assays were performed with the fluorescent alexa488-CCK ligand used to visualize cell surface receptors after treatment and fixation with 2% paraformaldehyde (Electron Microscopy Sciences, Cat# 15710), as we described. Images were acquired with a Zeiss Axiovert 200M inverted epifluorescence microscope.

Where [5] appears, read: CHO-K1 AVP2R cells, PAM format with vasopressin, original hits: agonist and PAM data combined, average ± SD.

Values joined by “and” are separate entries in the source; they are usually repeats but may differ in a detail not shown here. Identical values can stand only once.

T1 sequence (P30518 whole entry): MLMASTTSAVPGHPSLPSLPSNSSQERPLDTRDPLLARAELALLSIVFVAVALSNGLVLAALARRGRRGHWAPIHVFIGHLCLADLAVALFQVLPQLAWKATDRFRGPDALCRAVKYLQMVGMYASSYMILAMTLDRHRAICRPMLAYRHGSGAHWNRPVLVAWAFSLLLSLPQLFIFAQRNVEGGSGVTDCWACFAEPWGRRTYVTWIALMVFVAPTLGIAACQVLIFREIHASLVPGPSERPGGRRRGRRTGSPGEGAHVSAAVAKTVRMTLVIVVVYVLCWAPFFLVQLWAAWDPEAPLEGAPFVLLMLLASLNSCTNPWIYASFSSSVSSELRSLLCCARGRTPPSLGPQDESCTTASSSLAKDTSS

As to `CCN(CC)CCNc1ncnc2c1sc1nc(N3CCOCC3)c3c(c12)CCCC3` [CMP-1], the Emax in experiment [1] (CHO-K1, CHO-K1 AVP2R cells, PAM format with vasopressin, original hits: agonist and PAM data combined, average ± SD) is 21%. Further, in experiment [1] (CHO-K1 AVP2R cells), the “AVP2R PAM (cAMP) Score (activity score = normalized Emax × pEC50)” value is 1.0 and 1.02. Also, in experiment [1] (setting [5]), the “AVP2R PAM (cAMP) Emax” value is reported as 20.7 ± 9.8% and the EC50 amounted to 12 ± 7.1 µM. The “Agonist activity at parental CHO cells (intracellular calcium)” value in the experiment with parental CHO cells was “no significant endogenous agonist activity”. On CCK1R [2], the “Intrinsic agonist activity at CCK1R (intracellular calcium)” value was “no significant endogenous agonist activity at CCK1R” and the Kb is 31.6 µM. Besides, on CCK1R [2] (listed as Hit 1), the Logαβ is reported as 1.5 ± 0.3. The Logαβ at CCK1R [2] (listed as hit 1) is 1.5. The “Activity at P2YR” value in experiment [3] is on record as “Neither compound exhibited any activity at the P2YR”. In addition, the “Effect on CCK action at CCK2R (intracellular calcium)” value at CCK2R was “no effect on CCK2R”. The CCK1R internalization result on CCK1R [4] is on record as “neither “hit” cleared the receptor from the cell surface”.
Regarding `CCCc1nc2oc3c(NCCCN(C)C)ncnc3c2c2c1CCCC2` [CMP-28], in experiment [1] (CHO-K1 AVP2R cells), the “AVP2R PAM (cAMP) Score (activity score = normalized Emax × pEC50)” value is reported as 3.53. Also, in experiment [1] (setting [5]), the EC50 came out at 15 ± 13.6 µM and the Emax came out at 73 ± 16%. In addition, the “Agonist activity at parental CHO cells (intracellular calcium)” value in the experiment on parental CHO cells is recorded as “no significant endogenous agonist activity”. Further, at CCK1R [2], the “Intrinsic agonist activity at CCK1R (intracellular calcium)” value is given as “no significant endogenous agonist activity at CCK1R” and the Kb is 25.1 µM. In addition, the Logαβ at CCK1R [2] (listed as Hit 6) is recorded as 1.0 ± 0.2. For the same compound, the Logαβ on CCK1R [2] (listed as hit 6) is 1.0. The “Activity at P2YR” value in experiment [3] is “Neither compound exhibited any activity at the P2YR”. Further, the “Effect on CCK action at CCK2R (intracellular calcium)” value on CCK2R was “no effect on CCK2R”. In addition, on CCK1R [4], the CCK1R internalization result is “neither “hit” cleared the receptor from the cell surface”.
